Key:
[1] = target: T1, C-C chemokine receptor type 3 (Homo sapiens, UniProt P51677); assay: Displacement of [125I] eotaxin from human CCR3 receptor in CHO cells; type: cell-based
T1 sequence (P51677 whole entry): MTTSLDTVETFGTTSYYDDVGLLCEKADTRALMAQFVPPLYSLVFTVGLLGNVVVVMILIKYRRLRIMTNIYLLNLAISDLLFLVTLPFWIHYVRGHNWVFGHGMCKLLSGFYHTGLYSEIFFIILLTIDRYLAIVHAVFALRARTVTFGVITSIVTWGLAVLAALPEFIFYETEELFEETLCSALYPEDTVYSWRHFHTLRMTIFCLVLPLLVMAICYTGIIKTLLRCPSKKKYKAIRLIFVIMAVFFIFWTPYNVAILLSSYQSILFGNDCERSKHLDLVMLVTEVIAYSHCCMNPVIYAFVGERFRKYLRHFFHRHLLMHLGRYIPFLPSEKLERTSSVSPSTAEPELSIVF

[2] = target: T2, C-C chemokine receptor type 3 (Homo sapiens) (UniProt P51677); assay: Antagonist activity at human CCR3 receptor assessed as inhibition of chemotaxis in eosinophil at 3 nM; type: functional; set-up: scale not given: the % may be the effect or the level left
T2 sequence (whole entry): T1 sequence (P51677 whole entry)

[3] = target: T2, C-C chemokine receptor type 3 (Homo sapiens); assay: Antagonist activity at human CCR3 receptor assessed as inhibition of chemotaxis in eosinophil at 30 nM; type: functional; set-up: scale not given: the % may be the effect or the level left
[4] = target: T2, C-C chemokine receptor type 3 (Homo sapiens); assay: Antagonist activity at human CCR3 receptor assessed as inhibition of chemotaxis in eosinophil at 0.3 nM; type: functional; set-up: scale not given: the % may be the effect or the level left
[5] = target: T2, C-C chemokine receptor type 3 (Homo sapiens); assay: Antagonist activity at human CCR3 receptor assessed as inhibition of chemotaxis in eosinophil at 0.03 nM; type: functional; set-up: scale not given: the % may be the effect or the level left
[6] = target: C-C chemokine receptor type 3 (Homo sapiens, UniProt P51677); assay: Displacement of [125I] eotaxin from human CCR3/CCR2 chimeric receptor in CHO cells; type: cell-based

IC50 [1] [nM] | Compound | also measured
1.8 | CCc1cc(NC(=O)N[C@H](C)[C@@H](O)CN2CCC[C@@H](Cc3ccc(F)cc3)C2)cc(-c2nnnn2C)c1 | 
59 | C[C@@H](NC(=O)Nc1cccc(-c2nnnn2C)c1)[C@@H](O)CN(CCCc1ccc(F)cc1)CC(F)(F)F | 
3.7 | Cn1nnnc1-c1cccc(NC(=O)N[C@@H]2CCCC[C@H]2CNCCCc2ccc(F)cc2)c1 | 
19 | CCN(C[C@H](O)[C@@H](C)NC(=O)Nc1cccc(-c2nnnn2C)c1)[C@@H](C)[C@@H](O)Cc1ccc(F)cc1 | 
6 | CCc1cc(NC(=O)N[C@H](C)[C@@H](O)CN(CCCc2ccc(F)cc2)C(C)=O)cc(-c2nnnn2C)c1 | 
0.2 | CCc1cc(NC(=O)N[C@H](C)[C@@H](O)CN(CC)[C@@H](C)CCc2ccc(F)cc2)cc(-c2nnnn2C)c1 | 
0.2 | CCCN(CCCc1ccc(F)cc1)C[C@H](O)[C@@H](C)NC(=O)Nc1cccc(-c2nnnn2C)c1 | Activity [2]: 43%
5.7 | C[C@@H](NC(=O)Nc1cccc(-c2nnnn2C)c1)[C@@H](O)CN(C)[C@@H](C)[C@H](O)c1ccccc1 | 
0.3 | CCc1cc(NC(=O)N[C@H](C)[C@@H](O)CN(C)CCCc2ccc(F)cc2)cc(-c2nnnn2C)c1 | 
0.6 | CN(CCCc1ccc(F)cc1)C[C@@H]1CCCC[C@H]1NC(=O)Nc1cccc(-c2nnnn2C)c1 | 
0.3 | CCc1cc(NC(=O)N[C@H](C)[C@@H](O)CNCCCc2ccc(F)cc2)cc(-c2nnnn2C)c1 | Activity [2]: 42%; Activity [3]: 55%
2.5 | C[C@@H](NC(=O)Nc1cccc(-c2nnnn2C)c1)[C@@H](O)CN(CCCc1ccc(F)cc1)C1CCCCC1 | 
0.4 | CCc1cc(NC(=O)N[C@H](C)[C@@H](O)CN(CC)CCCc2ccc(F)cc2)cc(-c2nnnn2C)c1 (stereo in doubt; 5b) | 
88 | CCN(C[C@H](O)[C@@H](C)NC(=O)Nc1cccc(-c2nnnn2C)c1)[C@@H](C)[C@H](O)Cc1ccc(F)cc1 | 
0.5 | CCCN(CCCc1ccc(F)cc1)C[C@H](O)[C@@H](C)NC(=O)Nc1cc(CC)cc(-c2nnnn2C)c1 | Activity [4]: 62%; Activity [5]: 42%
 | CCc1cc(NC(=O)N[C@H](C)[C@@H](O)CN(CC)CCCc2ccc(F)cc2)cc(-c2nnnn2C)c1 (stereo in doubt; 5Et) | IC50 ([1]; cho): 0.4 nM
0.5 | CCc1cc(NC(=O)N[C@H](C)[C@@H](O)CN(C)[C@@H](C)[C@@H](O)c2ccccc2)cc(-c2nnnn2C)c1 | 
0.6 | CCc1cc(NC(=O)N[C@H](C)[C@@H](O)CN(CCCc2ccc(F)cc2)C2CC2)cc(-c2nnnn2C)c1 | 
2.5 | CCc1cc(NC(=O)N[C@H](C)[C@@H](O)CN(CCCc2ccc(F)cc2)Cc2ccccc2)cc(-c2nnnn2C)c1 | Activity [4]: 61%; Activity [5]: 9%

IC50 [1] [nM] | Compound | also measured
21.6 | CCc1cc(NC(=O)N[C@H](C)[C@@H](O)CN(CCCc2ccc(F)cc2)S(C)(=O)=O)cc(-c2nnnn2C)c1 | 
60 | Cn1nnnc1-c1cccc(NC(=O)N[C@@H]2CCCC[C@H]2CN(CCCc2ccc(F)cc2)CC(F)(F)F)c1 | 
0.2 | CCN(CCCc1ccc(F)cc1)C[C@H](O)[C@@H](C)NC(=O)Nc1cccc(-c2nnnn2C)c1 | Activity [4]: 34%
0.4 | C[C@@H](NC(=O)Nc1cccc(-c2nnnn2C)c1)[C@@H](O)CN(C)[C@@H](C)[C@@H](O)c1ccccc1 | Activity [3]: 67%
2.5 | CCN(C[C@H](O)[C@@H](C)NC(=O)Nc1cccc(-c2nnnn2C)c1)[C@@H](C)CCc1ccc(F)cc1 | 
0.4 | C[C@@H](NC(=O)Nc1cccc(-c2nnnn2C)c1)[C@@H](O)CN(CCCc1ccc(F)cc1)CC1CC1 | Activity [2]: 44%
0.6 | CCc1cc(NC(=O)N[C@H](C)[C@@H](O)CN(CCCc2ccc(F)cc2)CC2CC2)cc(-c2nnnn2C)c1 | 
0.4 | C[C@@H](NC(=O)Nc1cccc(-c2nnnn2C)c1)[C@@H](O)CN(CCCc1ccc(F)cc1)C1CC1 | 
9 | CCc1cc(NC(=O)N[C@H](C)[C@@H](O)CN(CCCc2ccc(F)cc2)CC(F)(F)F)cc(-c2nnnn2C)c1 | 
1.2 | CCc1cc(NC(=O)N[C@H](C)[C@@H](O)CN(CC)[C@@H](C)[C@@H](O)Cc2ccc(F)cc2)cc(-c2nnnn2C)c1 | 
577 | C[C@H]([C@H](O)c1ccccc1)N(C)C[C@H](O)[C@@H](C)NC(=O)Nc1cccc(-c2nnnn2C)c1 | 
421 | C[C@@H](NC(=O)Nc1cccc(-c2nnnn2C)c1)[C@@H](O)CN(CCCc1ccc(F)cc1)CC12CC3CC(CC(C3)C1)C2 | 
3.2 | CCc1cc(NC(=O)N[C@H](C)[C@@H](O)CN(CCCc2ccc(F)cc2)C2CCCCC2)cc(-c2nnnn2C)c1 | Activity [2]: 0%; Activity [3]: 58%
3.4 | CCc1cc(NC(=O)N[C@H](C)[C@@H](O)CN(CC)[C@@H](C)[C@H](O)Cc2ccc(F)cc2)cc(-c2nnnn2C)c1 | 
238 | C[C@H]([C@@H](O)c1ccccc1)N(C)C[C@H](O)[C@@H](C)NC(=O)Nc1cccc(-c2nnnn2C)c1 | 
211 | CCc1cc(NC(=O)N[C@H](C)[C@@H](O)CN(CCCc2ccc(F)cc2)CC23CC4CC(CC(C4)C2)C3)cc(-c2nnnn2C)c1 | 
0.4 | C[C@@H](NC(=O)Nc1cccc(-c2nnnn2C)c1)[C@@H](O)CN(C)CCCc1ccc(F)cc1 | Activity [3]: 0%
0.3 | C[C@@H](NC(=O)Nc1cccc(-c2nnnn2C)c1)[C@@H](O)CN1CCC[C@@H](Cc2ccc(F)cc2)C1 | IC50 [6]: 0.4 nM

Source: ChEMBL document CHEMBL1140827, “From rigid cyclic templates to conformationally stabilized acyclic scaffolds. Part II: Acyclic replacements for the (3S)-3-benzylpiperidine in a series of potent CCR3 antagonists” (Bioorg Med Chem Lett, 2008)
